Patent publication US20140356468A1, “COMPOSITION CONTAINING PAPER MULBERRY EXTRACTS” (AMOREPACIFIC CORPORATION, priority 2010, published 2014)
Values belong to the molecule of their own block, whether it stands above or below them.

What was measured:
[1] = target: T1, elastase type III (Sus scrofa, UniProt P00772); experiment: Inhibition of elastase activity; type: biochemical; details: elastase test; extract 10 mg/L, EGCG 250 μM; untreated negative control = 100
T1 construct: purchased Sigma Aldrich E0127
T1 sequence (P00772 27-266): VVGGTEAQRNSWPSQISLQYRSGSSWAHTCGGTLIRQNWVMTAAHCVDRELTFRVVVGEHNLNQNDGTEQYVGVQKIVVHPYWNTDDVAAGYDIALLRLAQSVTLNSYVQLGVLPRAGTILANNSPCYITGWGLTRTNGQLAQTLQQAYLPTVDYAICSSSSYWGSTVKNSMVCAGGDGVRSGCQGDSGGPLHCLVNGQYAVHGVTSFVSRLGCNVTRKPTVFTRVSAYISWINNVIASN
Procedure: The elastase inhibitory activity of the paper mulberry extract prepared in Preparation Example 1 was measured in comparison with that of EGCG. The elastase and substrate used were commercially purchased from Sigma Aldrich (Cat. No. E0127, USA). The elastase inhibitory activity was measured in the following manner. […] Then, 100 μL of 0.4514 mg/mL N-SUCCINYL-[…]-NITROANILIDE in the same buffer used above was added to the plate and allowed to react at 25° C. for 15 minutes. After completion of the reaction, the absorbance at 415 nm was measured. For correction, a blank test was carried out in the same manner. The elastase inhibitory activity was calculated using the following equation. Elastase activity inhibition(%)={1-(C-D)/(A-B)}×100 wherein A: absorbance at 415 nm in the case in which the test sample was not added and the enzyme was added; B: absorbance at 415 nm in the case in which the test sample was not added and the enzyme was not added; C: absorbance at 415 nm in the case in which the test sample was added and the enzyme was added; and D: absorbance at 415 nm in the case in which the test sample was added and the enzyme was not added.

[2] = target: T2, 5α-reductase in HEK293-5αR2 cells (Homo sapiens, UniProt P31213); experiment: Inhibition of 5α-reductase (testosterone to dihydrotestosterone conversion); type: cell-based; details: radioactivity in the DHT region/total radioactivity; extract 10 μg/ml, 2 hours
T2 construct: 3×FLAG; expressed in transfected cells; host or cells: HEK293
T2 sequence (P31213 1-254): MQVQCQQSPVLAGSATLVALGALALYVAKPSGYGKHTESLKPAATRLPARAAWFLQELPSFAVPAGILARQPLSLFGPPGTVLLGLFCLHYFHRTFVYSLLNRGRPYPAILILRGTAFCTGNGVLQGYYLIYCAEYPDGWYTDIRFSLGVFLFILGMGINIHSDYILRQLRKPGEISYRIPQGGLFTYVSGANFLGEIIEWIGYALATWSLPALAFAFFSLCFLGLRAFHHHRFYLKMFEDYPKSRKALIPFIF
Procedure: In order to examine the effect of inhibiting 5α-reductase activity, the ratio of [^14C]testosterone-to-[14^C]dihydrotestosteron conversion in HEK293-5αR2 cells was measured. HEK293 cells transfected with p3×FLAG-CMV-5αR2 were added to a 24-well plate at a density of 2.5×10^5 cells/well and cultured (Park et al., 2003, JDS. Vol. 31, ppl 91-98). The next day, the medium was replaced with fresh medium containing an enzyme substrate and an inhibitor. As the substrate of the medium, 0.05 μCi [^14C]testosterone (Amersham Pharmacia biotech, UK) was used. In order to measure the degree of inhibition, 10 μg/ml of the paper mulberry extract of Preparation Example 2 was added to the cells which were then incubated in a 5% CO2 incubator at 37° C. for 2 hours. As a positive control, finasteride was used. The culture medium was collected and, steroid was extracted with 800 μl of ethyl acetate. […]
The plastic sample was dried in air, and the amount of isotopes was measured using a Vas system. Specifically, the dried plastic sheet together with an X-ray film was placed in a Vas cassette, and after 1 week, the amounts of the testosterone and dihydrotestosterone isotopes were measured.

[3] = system: prostaglandin production in macrophages; experiment: Inhibition of prostaglandin production in LPS-treated macrophages (ELISA); type: cell-based, mice; details: percentage relative to 100% for the difference between LPS-treated and non-LPS-treated group
Procedure: Anti-inflammatory effect was evaluated based on the inhibition of prostaglandin production. The anti-inflammatory effect of the paper mulberry extract of Preparation Example 1 was measured using macrophages. […] Then, 100 μl of the cell suspension was added to each well of a 96-well plate and cultured in a 5% CO2 incubator at 37° C. for 2 hours so that the macrophages were attached to the plate surface. Then, the attached macrophages were washed three times with PBS and used to test the effect of the extract. The cultured macrophages were added to 1%(w/v) LPS-containing RPMI medium at a concentration of 5×10^4 cells/ml and cultured for 12 hours to induce the production of prostaglandin, after which they were treated with 100 μl of the extract. Released prostaglandin was quantitatively analyzed by ELISA. Herein, the prostaglandin production inhibitory activity of the extract was expressed as the percentage of prostaglandin production in the group treated with LPS together with the sample relative to 100% for the difference in prostaglandin production between the LPS-treated group and the non-LPS-treated group.

[4] = system: MITF expression in Melan-a melanocyte cell line MITF-GLuc; experiment: Stimulation of MITF expression in transformed melanocytes (GLuc reporter); type: cell-based; details: 100 μM, 3 days
Text: To examine the gray preventing effect of the paper mulberry extract, the effect of the paper mulberry extract on the stimulation of MITF expression was examined as disclosed in Korean Patent Application No. 10-2007-0072182 (entitled “A method for screening a gray hair-preventing substance using a transformed cell line and leukoplakia mice and a composition for preventing gray hair containing the gray hair-preventing substance”). The Melan-a melanocyte cell line MITF-GLuc (accession number: KCLRF-BP-00162) transformed with the expression vector pMITF-GLuc was cultured in RPMI 1640 medium containing 10% fetal bovine serum (FBS), 100 unit/ml penicillin-streptomycin (Gibco), 0.1 μM TPA (Sigma) and 400 μg/ml G418 under the conditions of 37° C. and 10% CO2. The positive control IBMX was purchased from Sigma and used at a concentration of 100 μM. […] After the incubation, to quantify the amount of GLuc, a small amount of the medium was taken, transferred to a measurement plate and allowed to react with a substrate. Specifically, a small amount of the medium was taken from the cell culture dish and transferred to a measurement plate, after which 1× GLuc assay working solution (NEB) was added to the medium at a ratio of 4:1, and the amount of light emitted at […] was measured using a luminometer.

[5] = system: Leukoplakia mice (C57bl/6-Mitf^mi-vit); experiment: Gray hair prevention and black hair induction in leukoplakia mice (melanin in hair); type: in vivo; details: topical twice a day, about 3 weeks; extract 2.5%, IBMX 50 mM in vehicle
Procedure: Leukoplakia mice (C57bl/6-Mitf^mi-vit) were purchased from The Jackson Lab (USA) and used. The effect of the paper mulberry extract on gray hair prevention in the mice was tested in the following manner. The back of 12-week-old mice was depilated such that the depilated area was the same between the mice. From the day following the depilation day, gray hair-preventing substances were applied to the depilated area twice a day. As a vehicle for the gray hair-preventing substance, a mixture of EtOH:1,3-BG:DW=3:2:5 (volume ratio) was used. […] After about 3 weeks, the difference in gray hair prevention effect between the materials has been distinguished, newly grown hairs were collected and the amount of melanin in the hairs was measured using esperase (Novozyme). […] The reaction solution thus obtained was added to a 96-well plate, and the absorbance at 405 nm was measured, thereby measuring the amount of melanin in the reaction solution. As described above, the leukoplakia mouse model in which the occurrence of gray hair was stimulated was treated with each of the negative control, the positive control and the test sample, and the effects of the negative control, the positive control and the test sample were measured visually and by measuring the amount of melanin in the hair.

[6] = system: Collagenase (MMP-1); experiment: Collagenase (MMP-1) production in human fibroblasts (ELISA); type: cell-based; details: extract 10 μg/ml, 24 hours; control = 100
Procedure: The collagenase production inhibitory ability of the paper mulberry extract prepared in Preparation Example 1 was measured in comparison with that of retinoic acid.
Human fibroblasts were added to a 96-well microtiter plate containing 2.5% fetal bovine serum-containing DMEM (Dulbecco's Modified Eagle's Media) at a density of 5,000 cells/well and were cultured in a 5% CO2 incubate at 37° C. to a confluence of about 70-80%. Then, the cell culture was treated with 10 μg/ml of the paper mulberry extract of Preparation Example 1 for 24 hours and collected.
The production of collagenase in the collected cell culture was measured using a commercially available collagenase measurement instrument (Catalog #: RPN 2610, Amersham Pharmacia, USA). […]
The absorbance of the yellowish 96-well plate at 405 nm was measured using a spectrophotometer, and based on the measurements, the degree of synthesis of collagenase was calculated using the following equation 1. Herein, the absorbance of a cell culture collected from a group not treated with the test sample was used as a control.
Collagenase expression(%)=(absorbance of cell group treated with material/absorbance of control)×100 Equation 1

[7] = system: differentiated 3T3-L1 adipocytes; experiment: Inhibition of lipogenesis (Sudan III staining of adipocytes); type: cell-based, mouse; parameters: key: expressed as +++, ++ and + depending on the degree of staining; expressed as +++, ++ and + depending on the degree of staining; expressed as +++, ++ and + depending on the degree of staining; details: Sudan III staining grade; positive control 50 μM caffeine
Procedure: Mouse fibroblast 3T3-L1 cells were seeded into a 6-well culture plate containing 10% fetal bovine serum (FBS)-containing DMEM (Dulbeco's modified eagle's medium (GIBCO BRL, Life Technologes) at a density of 1×10^5 cells/well. After 2 days, the medium was replaced with fresh DMEM (containing 10% FBS), followed by culture for 2 days. Then, the cultured cells were treated with DMEM (containing 10% FBS) containing 1 μg/ml insulin, 0.5 mM IBMX and 0.25 μM dexamethasone to induce differentiation, and after 2 days, the medium was replaced with insulin-containing DMEM, followed by incubation for 5 days. After 5 days, the medium was replaced with normal medium (DMEM containing 10% FBS), and the cells were incubated until the cells morphologically differentiated into adipocytes. In order to measure the effect of the paper mulberry extract on the inhibition of the accumulation of fat in adipocytes, the differentiated 3T3-L1 adipocytes were subjected to Sudan III staining ([…], Sigma-Aldrich). The adipocytes were fixed with 4% paraformaldehyde (pH 7.2) in phosphate buffer at room temperature, and then washed with PBS (phosphate buffered saline), after which the cells were stained with Sudan III and photographed for visual comparison. […] The degree of inhibition of fat accumulation was expressed as +++, ++ and + depending on the degree of staining.

[8] = system: differentiated 3T3-L1 adipocytes; experiment: Stimulation of decomposition of triglyceride in adipocytes (GPO-trinder kit); type: cell-based, mouse; details: control = 100%; caffeine 50 μM
Procedure: Mouse fibroblast 3T3-L1 cells were seeded into a 6-well culture plate containing 10% fetal bovine serum (FBS)-containing DMEM (Dulbeco's modified eagle's medium, GIBCO BRL, Life Technologes) at a density of 1×10^5 cells/well. After 2 days, the medium was replaced with fresh DMEM (containing 10% FBS), followed by culture for 2 days. Then, the cultured cells were treated with DMEM (containing 10% FBS) containing 1 μg/ml insulin, 0.5 mM IBMX and 0.25 μM dexamethasone to induce differentiation, and after 2 days, the medium was replaced with insulin-containing DMEM, followed by incubation for 5 days. After 5 days, the medium was replaced with normal medium (DMEM containing 10% FBS), and the cells were incubated until the cells morphologically differentiated into adipocytes. In order to evaluate the effect of the paper mulberry extract on the stimulation of decomposition of triglyceride in adipocytes, a test was carried out using the differentiated […] adipocytes. The 3T3-L1 adipocytes were washed twice with PBS (phosphate buffered saline), and colorless DMEM containing 0.5% fatty acid-free bovine serum albumin (BSA) was added to the cells, and a fraction of the cells was taken and used in the test. As a control, a medium not treated with the test material or the positive control was used. […] (Sigma, St. Louis, Mo., U.S.A.), and the absorbance at 540 nm was measured using an ELISA reader.

Expression (%) [1]: 90 ± 1.2%
Compound: O=C(O[C@@H]1Cc2c(O)cc(O)cc2O[C@@H]1c1cc(O)c(O)c(O)c1)c1cc(O)c(O)c(O)c1 [EGCG]

Conversion (%) [2]: 27.6%
Compound: CC(C)(C)NC(=O)[C@H]1CC[C@H]2[C@@H]3CC[C@H]4NC(=O)C=C[C@]4(C)[C@H]3CC[C@]12C [finasteride]

Compound: CC(=O)Oc1ccccc1C(=O)O [aspirin]
Prostaglandin production (inhibitory effect on prostaglandin production) [3]: 25.0%

Compound: CC(C)Cn1c(=O)n(C)c(=O)c2[nH]cnc21 [IBMX]
Percentage (%) of gluciferase production relative to negative control [4]: 180%
Ratio (%) of amount of melanin in hair relative to negative control [5]: 105.9%

Compound: CC1=C(/C=C/C(C)=C/C=C/C(C)=C/C(=O)O)C(C)(C)CCC1 [Retinoic acid, retinoic acid]
Expression (%) (collagenase) [6]: 75 ± 3.4%

Compound: Cn1c(=O)c2c(ncn2C)n(C)c1=O [Caffeine, caffeine]
Inhibition (%) [7]: +
Level of released glycerol [8]: 115%
